Source: patent US20250339462A1, “CANCER TREATMENT USING ULTRA-HIGH CONCENTRATION GASEOUS NITRIC OXIDE AND A CHECKPOINT INHIBITOR” (Beyond Air, Inc., priority 2022, published 2025)
Entries after “also recorded” stand apart in the source; their conditions may differ.

System: 4T1 tumor-bearing mice
Experiment: 4T1 breast cancer model, UNO/Anti-CTLA-4 Repeated dose study
Assay type: in vivo, mouse
Method: Preparation of 4T1 cells: Cancer cell suspension, in Hanks' Balanced Salt Solution (HBSS) (Biological Industries, Israel), at a concentration of 5.0×10^6 cells/ml was freshly prepared on the day of the cancer model induction. Cells were grown to a 70-80% confluency and harvested using trypsin. The cells were centrifuged at 1,200 revolutions per minute (rpm)—241 G for 8 minutes, then the pellet was re-suspended in 1 ml of HBSS. The cells were counted using an automated cell counter and a suspension with a concentration of 5.0×10^6 cells/ml was prepared. Cell viability must be above 90% before cell inoculation to the mice, otherwise new cells will need to be prepared. At the point of inoculation, cells will be at passage 8 at most. The cell suspension was then aspirated into a 1 ml syringe with a 27 G needle, for subcutaneous (s.c.) injection. All injection volume was used and was not re-introduced into the stock solution.
Inoculation of 4T1 cancer cells to mice—Cancer cell suspension at a concentration of 5.0×10^6 cells/ml was inoculated to the right flank of animals at a volume of 100 μl per mouse. Female Balb/c mice were inoculated with 100 μl of 5.0×10^6 4T1 cells/ml. Administration was performed as soon as possible following cell preparation and after manual shaking prior to withdrawal of cell suspension. Injections were performed using a 1 ml syringe and a 27 G needle where withdrawal is done without the needle.
UNO and N2 treatment—On the day of treatment, mice were anesthetized by an intraperitoneal (i.p.) injection of 100 mg/kg of ketamine and 10 mg/kg of xylazine hydrochloride solution. Tumor-bearing mice were treated with either N2 or UNO at 50,000 ppm or 100,000 ppm. UNO at 50,000 ppm was administered intratumorally by a 23 G needle for 10 minutes, at 0.2 LPM and 2 bar exit pressure. UNO at 100,000 ppm was administered intratumorally by a 23 G needle for 2 minutes, at 0.2 LPM and 2 bar exit pressure. After treatment, all mice were warmed and closely monitored until complete recovery was observed.
Injection of anti-CTLA-4—Anti-CTLA-4 was administered up to 5 times intraperitoneally (i.p.) at a dose of 5 mg/kg, i.p., using a 1 ml syringe with a 27 G needle. The injection was administered to approximately the same location each time.
UNO/Anti-CTLA-4 Repeated dose study—Balb/c mice (60) were inoculated with mouse breast cancer carcinoma (4T1) cells injected subcutaneously (s.c.) to the right flank. […]
Primary tumor volume progression was monitored twice a week by measuring the tumor using a digital caliper calculated as: […]
Mice survival was evaluated. Mice that reached a tumor volume of ≥1500 mm^3 and/or a score of 12 were humanely euthanized, and the time of death was recorded. Metastases development was evaluated postmortem.

[N]=O [UNO, nitric oxide]
Survival hazard ratio vs anti-mCTLA-4 (FIG. 14C, Cox model): 0.16
Survival hazard ratio vs untreated (FIG. 14C, Cox model): 0.31
Mice survival vs anti-mCTLA-4 monotherapy (UNO twice (FIG. 14C)): prolonged survival; also recorded: significantly prolongs mice survival
Tumors smaller compared to only anti-mCTLA-4 (only UNO, 100,000 ppm 2 min twice, day 13 after first UNO treatment, P=0.1158): 12.9%
